Experimental data published in patent publication US11414416B1, “Compounds and uses thereof” (Foghorn Therapeutics Inc., priority 2019, dated 2022).

Tests used:
[1] = target: BRD9 bromodomain (Homo sapiens (Human), UniProt Q9H8M2); assay: BRD9 bromodomain TR-FRET competition binding assay; details: Table 4; competition with biotinylated ligand, 3 nM Flag-BRD9, 90 minutes
Description: Procedure: His-Flag-BRD9 (P133-K239; Swiss Prot Q9H8M2; SEQ ID NO:1 mgsshhhhhhenlyfq/gdykddddkgslevlfqg/[…] […]) was cloned, expressed, purified, and then treated with TEV protease. Cleaved His tag was removed by purification. The binding of a biotinylated small molecule ligand of BRD9 was assessed via the LANCE® TR-FRET platform (PerkinElmer), and the compounds were assayed for inhibitory activity against this interaction.
A mixture of biotinylated-ligand and SureLight™ Allophycocyanin-Streptavidin (APC-SA, PerkinElmer AD0201) in 50 mM HEPES (pH 7.4), 50 mM NaCl, 1 mM TCEP (pH 7), 0.01% (v/v) Tween-20, 0.01% (w/v) bovine serum albumin was added to a white 384-well PerkinElmer Proxiplate Plus plate. DMSO or 3-fold serially diluted compounds were then added to the Proxiplate followed by addition of Flag-BRD9. After a 10-minute incubation at room temperature, Eu-W1024 anti-FLAG (PerkinElmer, AD0273) was added. The final reaction mixture that contained 3.75 nM biotinylated ligand, 3 nM Flag-BRD9, 7.5 nM SureLight™ Allophycocyanin-Streptavidin, and 0.2 nM Eu-W1024 anti-FLAG was incubated at room temperature for 90 minutes.
Results: The plates were then read on a PerkinElmer Envision plate reader to determine the ratio of emission at 665 nm over 615 nm. […]

[2] = target: Nanoluciferase-BRD9 fusion protein (Homo sapiens (Human), UniProt Q9H8M2); assay: SYO1 BRD9 NanoLuc degradation assay; assay type: cell-based; details: Table 5A, SYO-1 cells expressing 3×FLAG-NLuc-BRD9, 6 hours; for DC50: read-out: SYO1 BRD9-NanoLuc degradation IC50
Outline: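 Degradation was read as loss of nanoluciferase signal (Nano-Glo) after 6 h compound exposure in a stable SYO-1 line carrying 3×FLAG-NLuc-BRD9 (8000 cells/well). Normalised between DMSO (high) and a 1 μM known BRD9 degrader (low).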

BRD9 bromodomain, sequence (Q9H8M2 133-239): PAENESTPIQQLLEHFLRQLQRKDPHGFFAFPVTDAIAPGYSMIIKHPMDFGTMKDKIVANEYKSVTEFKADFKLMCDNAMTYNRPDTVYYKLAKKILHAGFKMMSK
Nanoluciferase-BRD9 fusion protein, sequence (Q9H8M2 whole entry, the tested form may be a part): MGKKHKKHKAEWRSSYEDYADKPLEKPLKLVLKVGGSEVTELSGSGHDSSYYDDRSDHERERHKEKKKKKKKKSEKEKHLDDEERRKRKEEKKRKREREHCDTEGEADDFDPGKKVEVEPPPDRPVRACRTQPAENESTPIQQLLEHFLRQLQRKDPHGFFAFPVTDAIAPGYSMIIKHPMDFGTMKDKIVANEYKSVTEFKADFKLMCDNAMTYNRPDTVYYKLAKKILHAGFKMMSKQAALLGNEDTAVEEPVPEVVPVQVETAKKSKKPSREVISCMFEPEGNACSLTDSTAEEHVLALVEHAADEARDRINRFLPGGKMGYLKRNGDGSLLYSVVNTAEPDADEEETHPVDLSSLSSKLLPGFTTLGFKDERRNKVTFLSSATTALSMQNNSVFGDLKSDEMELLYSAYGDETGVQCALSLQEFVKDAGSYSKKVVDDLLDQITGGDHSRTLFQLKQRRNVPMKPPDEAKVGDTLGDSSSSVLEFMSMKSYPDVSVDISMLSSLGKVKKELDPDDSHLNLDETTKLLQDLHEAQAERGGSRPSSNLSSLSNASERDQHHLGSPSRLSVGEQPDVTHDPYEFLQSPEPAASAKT

SMILES	IC50 [1] [nM]	IC50 [2] [nM]	DC50 [2] [nM]
COc1cc(-c2cn(C)c(=O)c3cnccc23)cc(OC)c1CN1CCC2(CC1)CN(C(=O)CCCOc1cccc3c1C(=O)N(C1CCC(=O)NC1=O)C3=O)CCO2 (stereo not drawn) [Compound D39, 4-[4-(9-[[2,6-dimethoxy-4-(2-methyl-1-oxo-2,7-naphthyridin-4-yl)phenyl]methyl]-1-oxa-4,9-diazaspiro[5.5]undecan-4-yl)-4-oxobutoxy]-2-(2,6-dioxopiperidin-3-yl)isoindole-1,3-dione]	< 10	< 10	–
COc1cc(-c2cn(C)c(=O)c3cnccc23)cc(OC)c1CN(C)C12CC(C(=O)NCCCCCNc3cccc4c3C(=O)N(C3CCC(=O)NC3=O)C4=O)(C1)C2 (stereo not drawn) [Compound D57, 3-([[2,6-dimethoxy-4-(2-methyl-1-oxo-2,7-naphthyridin-4-yl)phenyl]methyl](methyl)amino)-N-(5-[[2-(2,6-dioxopiperidin-3-yl)-1,3-dioxoisoindol-4-yl]amino]pentyl)bicyclo[1.1.1]pentane-1-carboxamide formic acid]	10 to 100	< 10	–
COc1cc(-c2cn(C)c(=O)c3cnccc23)cc(OC)c1CN1CC2(C1)CN(C(=O)CCCCOc1cccc3c1C(=O)N(C1CCC(=O)NC1=O)C3=O)C2 (stereo not drawn) [Compound D34, 4-((5-(6-(2,6-dimethoxy-4-(2-methyl-1-oxo-1,2-dihydro-2,7-naphthyridin-4-yl)benzyl)-2,6-diazaspiro[3.3]heptan-2-yl)-5-oxopentyl)oxy)-2-(2,6-dioxopiperidin-3-yl)isoindoline-1,3-dione]	< 10	< 10	–
COc1cc(-c2cn(C)c(=O)c3cnccc23)cc(OC)c1CN1CC(C(=O)NCCCCCNc2cccc3c2C(=O)N(C2CCC(=O)NC2=O)C3=O)C1 (stereo not drawn) [Compound D3, 1-[[2,6-dimethoxy-4-(2-methyl-1-oxo-1,2-dihydro-2,7-naphthyridin-4-yl)phenyl]methyl]-N-(5-[[2-(2,6-dioxopiperidin-3-yl)-1,3-dioxo-2,3-dihydro-1H-isoindol-4-yl]amino]pentyl) azetidine-3-carboxamide]	< 10	< 10	–
COc1cc(-c2cn(C)c(=O)c3cnccc23)cc(OC)c1CN(C)CC(=O)NCCCC(=O)NC12CC(Nc3cccc4c3C(=O)N(C3CCC(=O)NC3=O)C4=O)(C1)C2 (stereo not drawn) [Compound D71, 4-(2-((2,6-dimethoxy-4-(2-methyl-1-oxo-1,2-dihydro-2,7-naphthyridin-4-yl)benzyl) (methyl)amino)acetamido)-N-(3-((2-(2,6-dioxopiperidin-3-yl)-1,3-dioxoisoindolin-4-yl)amino)bicycle[1.1.1]pentan-1-yl)butanamide]	< 10	–	< 10
COc1cc(-c2cn(C)c(=O)c3cnccc23)cc(OC)c1CN1CCN(C(=O)COc2cccc3c2C(=O)N(C2CCC(=O)NC2=O)C3=O)CC1 (stereo not drawn) [Compound D37, 4-(2-(4-(2,6-dimethoxy-4-(2-methyl-1-oxo-1,2-dihydro-2,7-naphthyridin-4-yl)benzyl)piperazin-1-yl)-2-oxoethoxy)-2-(2,6-dioxopiperidin-3-yl)isoindoline-1,3-dione formic acid]	< 10	< 10	–
COc1cc(-c2cn(C)c(=O)c3cnccc23)cc(OC)c1CN1CCN(C(=O)C2CC2CNC(=O)COc2ccc3c(c2)C(=O)N(C2CCC(=O)NC2=O)C3=O)CC1 (stereo not drawn) [Compound D66, N-[[2-(4-[[2,6-dimethoxy-4-(2-methyl-1-oxo-2,7-naphthyridin-4-yl)phenyl]methyl]piperazine-1-carbonyl)cyclopropyl]methyl]-2-[[2-(2,6-dioxopiperidin-3-yl)-1,3-dioxoisoindol-5-yl]oxy]acetamide formic acid]	10 to 100	100 to 1000	–
COc1cc(-c2cn(C)c(=O)c3cnccc23)cc(OC)c1CN1CC(S(=O)(=O)NCCCCCNc2ccc3c(c2)C(=O)N(C2CCC(=O)NC2=O)C3=O)C1 (stereo not drawn) [Compound D23, 1-[[2,6-dimethoxy-4-(2-methyl-1-oxo-1,2-dihydro-2,7-naphthyridin-4-yl)phenyl]methyl]-N-(5-[[2-(2,6-dioxopiperidin-3-yl)-1,3-dioxo-2,3-dihydro-1H-isoindol-5-yl]amino]pentyl) azetidine-3-sulfonamide formic acid]	< 10	< 10	–
COc1cc(-c2cn(C)c(=O)c3cnccc23)cc(OC)c1CN(C)CC12CC(C(=O)NCCCCCNc3cccc4c3C(=O)N(C3CCC(=O)NC3=O)C4=O)(C1)C2 (stereo not drawn) [Compound D56, 3-[([[2,6-dimethoxy-4-(2-methyl-1-oxo-2,7-naphthyridin-4-yl)phenyl]methyl](methyl)amino)methyl]-N-(5-[[2-(2,6-dioxopiperidin-3-yl)-1,3-dioxoisoindol-4-yl]amino]pentyl)bicyclo[1.1.1]pentane-1-carboxamide]	< 10	< 10	–
COc1cc(-c2cn(C)c(=O)c3cnccc23)cc(OC)c1CN1CCN(CCCOc2ccc3c(c2)C(=O)N(C2CCC(=O)NC2=O)C3=O)CC1 (stereo not drawn) [Compound D53, 5-[3-(4-[[2,6-dimethoxy-4-(2-methyl-1-oxo-2,7-naphthyridin-4-yl)phenyl]methyl]piperazin-1-yl)propoxy]-2-(2,6-dioxopiperidin-3-yl)isoindole-1,3-dione]	< 10	< 10	–
COc1cc(-c2cn(C)c(=O)c3cnccc23)cc(OC)c1CN1CC2(CCC2NC(=O)CCOCCOc2cccc3c2C(=O)N(C2CCC(=O)NC2=O)C3=O)C1 (stereo not drawn) [Compound D84]	10 to 100	> 1000	–
COc1cc(-c2cn(C)c(=O)c3cnccc23)cc(OC)c1CN1CCN(C(=O)C2CC2CNC(=O)COc2cccc3c2C(=O)N(C2CCC(=O)NC2=O)C3=O)CC1 (stereo not drawn) [Compound D65, N-[[2-(4-[[2,6-dimethoxy-4-(2-methyl-1-oxo-2,7-naphthyridin-4-yl)phenyl]methyl]piperazine-1-carbonyl)cyclopropyl]methyl]-2-[[2-(2,6-dioxopiperidin-3-yl)-1,3-dioxoisoindol-4-yl]oxy]acetamide]	10 to 100	100 to 1000	–
COc1cc(-c2cn(C)c(=O)c3cnccc23)cc(OC)c1CN(C)CCCN1CCC(Oc2ccc3c(c2)C(=O)N(C2CCC(=O)NC2=O)C3=O)CC1 (stereo not drawn) [Compound D52, 5-((1-(3-((2,6-dimethoxy-4-(2-methyl-1-oxo-1,2-dihydro-2,7-naphthyridin-4-yl)benzyl) (methyl)amino)propyl)piperidin-4-yl)oxy)-2-(2,6-dioxopiperidin-3-yl)isoindoline-1,3-dione formic acid]	< 10	< 10	–

Now from value to molecule:

IC50 [1] [nM]	IC50 [2] [nM]	DC50 [2] [nM]	SMILES
< 10	< 10	–	COc1cc(-c2cn(C)c(=O)c3cnccc23)cc(OC)c1CN1CC2C1CCN2C(=O)CCOCCOc1cccc2c1C(=O)N(C1CCC(=O)NC1=O)C2=O (stereo not drawn) [Compound D113]
10 to 100	10 to 100	–	COc1cc(-c2cn(C)c(=O)c3cnccc23)cc(OC)c1CN1CCC2CCN(C(=O)CCOCCOc3cccc4c3C(=O)N(C3CCC(=O)NC3=O)C4=O)CC21 (stereo not drawn) [Compound D91]
10 to 100	10 to 100	–	COc1cc(-c2cn(C)c(=O)c3cnccc23)cc(OC)c1CN1CCC2(C1)CN(C(=O)CCOCCOc1ccc3c(c1)C(=O)N(C1CCC(=O)NC1=O)C3=O)C2 (stereo not drawn) [Compound D99]
10 to 100	100 to 1000	–	COc1cc(-c2cn(C)c(=O)c3cnccc23)cc(OC)c1CN1CCC12CCN(C(=O)CCOCCOc1cccc3c1C(=O)N(C1CCC(=O)NC1=O)C3=O)C2 (stereo not drawn) [Compound D95]
< 10	< 10	–	COc1cc(-c2cn(C)c(=O)c3cnccc23)cc(OC)c1CN1CC2CN(C(=O)CCOCCOc3ccc4c(c3)C(=O)N(C3CCC(=O)NC3=O)C4=O)CCC21 (stereo not drawn) [Compound D100]
< 10	–	10 to 100	COc1cc(-c2cn(C)c(=O)c3cnccc23)cc(OC)c1CN1CCC(C2CCN(C(=O)CCOCCOc3cccc4c3C(=O)N(C3CCC(=O)NC3=O)C4=O)C2)CC1 (stereo not drawn) [Compound D96]
< 10	< 10	–	COc1cc(-c2cn(C)c(=O)c3cnccc23)cc(OC)c1CN1CCC2(CCN(C(=O)CCOCCOc3cccc4c3C(=O)N(C3CCC(=O)NC3=O)C4=O)C2)C1 (stereo not drawn) [Compound D108]
< 10	–	10 to 100	COc1cc(-c2cn(C)c(=O)c3cnccc23)cc(OC)c1CN1CC2(CCN(C(=O)CCOCCOc3ccc4c(c3)C(=O)N(C3CCC(=O)NC3=O)C4=O)CC2)C1 (stereo not drawn) [Compound D118]
10 to 100	10 to 100	–	COc1cc(-c2cn(C)c(=O)c3cnccc23)cc(OC)c1CN1CCC2(CCN(C(=O)CCOCCOc3ccc4c(c3)C(=O)N(C3CCC(=O)NC3=O)C4=O)CC2)C1 (stereo not drawn) [Compound D120]
< 10	–	10 to 100	COc1cc(-c2cn(C)c(=O)c3cnccc23)cc(OC)c1CN(C)C1CC2CN(C(=O)CCOCCOc3ccc4c(c3)C(=O)N(C3CCC(=O)NC3=O)C4=O)CC2C1 (stereo not drawn) [Compound D169]
< 10	–	10 to 100	COc1cc(-c2cn(C)c(=O)c3cnccc23)cc(OC)c1CN1CCC2(CC1)CN(C(=O)CCOCCOc1cccc3c1C(=O)N(C1CCC(=O)NC1=O)C3=O)C2 (stereo not drawn) [Compound D88]
